Legend:
[1] = test system: 5′-^32p end-labeled 514 bps restriction fragment from pBR322 DNA (Ecor I/ Rsa I); assay: Reductive cleavage of 32P-end labeled DNA restriction fragment, PAGE autoradiogram; assay type: biochemical
[2] = NaBH4 reductive activation, hydrolytic cleavage
[3] = NaBH4 reductive activation, piperidine cleavage

## CCOC(=O)c1[nH]c2c(c1COC(C)=O)C(=O)C(OC)=CC2=O
other
  melting point: 194 to 196 °C

## COC1=CC(=O)c2[nH]c(COC(C)=O)c(COC(C)=O)c2C1=O [Compound 1d, 2,3-Diacetoxymethyl-5-methoxyindol-4,7-dione]
[1]; [2]
  Cleavage Pattern: recognition occurs only at 3′-GGA-5′ with phosphate alkylation and cleavage occurring largely at the center G base
[1]; [3]
  Cleavage Pattern: GT (5′
other
  melting point: 179 to 181 °C

## COC1=CC(=O)c2[nH]c3c(c2C1=O)CCC3OC(C)=O (stereo not drawn) [Compound 2b, 3-Acetoxy-7-methoxy-1,2,3,4-tetrahydrocyclopent[b]indole-5,8-dione]
[1]; [2]
  Cleavage Pattern: No Significant
[1]; [3]
  Cleavage Pattern: G & T of 3′-GT-
other
  melting point: 173 to 175 °C

## COS(=O)(=O)OC [DMS, reference compound]
[1]; Piperidine cleavage, no reductive activation (sequencing reference lane)
  Cleavage Pattern: G & A

## CC(=O)OCc1[nH]c2c(c1C)C(=O)C(N1CC1)=CC2=O [reference compound]
[1]; [2]
  Cleavage Pattern: Weak Cleavage
[1]; [3]
  Cleavage Pattern: Some G & A

## CC(=O)OC1CCc2c1[nH]c1c2C(=O)C=C(N2CC2)C1=O (stereo not drawn) [reference compound]
[1]; [2]
  Cleavage Pattern: No Significant Cleavage
[1]; [3]
  Cleavage Pattern: G & T of 3′-GT- 5′

From patent US20030119022A1, “Recognition and cleavage at the DNA major groove” (priority 2001, published 2003)
